Data on twelve compounds can be found in US20240025919A1, “AZA-TETRACYCLIC OXAZEPINE COMPOUNDS AND USES THEREOF” (Genentech, Inc., priority 2022, published 2024).

The target of one test is KRAS G12D (Homo sapiens (Human), UniProt P01116, G12D). The test can be described thus: KRAS G12D LoEnz Biochemical Assay, BODIPY-GDP Exchange TR-FRET (SOS1-mediated nucleotide exchange). The settings on record: read-out: KRas (G12D) GDP HTRF IC50. The method, then:
Example 500: KRAS G12D LoEnz Biochemical Assay, BODIPY-GDP Exchange TR-FRET. Biochemical compound potencies are assessed by evaluating inhibition of SOS1I-mediated nucleotide exchange in KRAS G121D. In this assay, the SOS1-promoted exchange of fluorescently-labeled GDP (BOPIDY-GDP) is monitored by time-resolved fluorescence resonance energy transfer (TR-FRET). Compounds solubilized in DMS0 are dispensed as concentration series into 384-well white assay plates. A preformed complex of biotin-tagged recombinant human KRAS (0.06 nM mutant G1 2D) and 0.06 nM terbium-labeled streptavidin (CisBIO) prepared in 10 uL/well assay buffer (20 mM HEPES, pH 7.5, 50 mM NaCl, 10 mMMMgCl2, 0.0100 Tween-20 and 1 mM dithiothreitol) is added and allowed to incubate for 10-minutes at room temperature. The reaction is initiated with the addition of 5 uL 300 nM recombinant human SOS1 and 300 nM BODIPY-GDP in assay buffer. After a 120-minute incubation, the fluorescence is measured with excitation at 337 nm and emission at 490 and 520 nm. The TR-FRET ratio is determined as the fluorescence at 520 nm divided by the fluorescence at 490 nm multiplied by 10,000. The results are normalized to percent inhibition based on control samples: DMSO (0% inhibition) and control compound at a concentration that inhibits completely (100% inhibition). The normalized TR-FRET results are plotted against compound concentration, and the data are fit to a 4-parameter Hill equation to determine the IC50 values.

The next test addresses KRAS WT (Homo sapiens (Human), UniProt P01116). The experiment in a line: KRAS WT Biochemical Assay, BODIPY-GDP Exchange TR-FRET (Example 501; 3 nM KRAS WT, 3 nM SOS1, 60-minute incubation). The note with it: read-out: KRas(wt) GDP HTRF IC50. How it is done:
Example 501: KRAS WT Biochemical Assay, BODIPY-GDP Exchange TR-FRET. Biochemical compound potencies are assessed by evaluating inhibition of SOS1-mediated nucleotide exchange in KRAS WT. In this assay, the SOS1-promoted exchange of fluorescently-labeled GDP (BOPIDY-GDP) is monitored by time-resolved fluorescence resonance energy transfer (TR-FRET). Compounds solubilized in DMSO are dispensed as concentration series into 384-well white assay plates, and 5 uL assay buffer (20 mM HEPES, pH 7.5, 50 mM NaCl, 10 mM MgCl2, 0.01% Tween-20 and 1 mM dithiothreitol) is added just prior to the start of the assay. A preformed complex of 3 nM biotin-tagged recombinant human KRAS WT and 0.3 nM terbium-labeled streptavidin (CisBIO) prepared in 5 uL/well assay buffer is added and allowed to incubate for 10-minutes at room temperature. The reaction is initiated with the addition of 5 uL 3 nM recombinant human SOS1 and 300 nM BODIPY-GDP in assay buffer. After a 60-minute incubation, the fluorescence is measured with excitation at 337 nm and emission at 490 and 520 nm. The TR-FRET ratio is determined as the fluorescence at 520 nm divided by the fluorescence at 490 nm multiplied by 10,000. The results are normalized to percent inhibition based on control samples: DMSO (0% inhibition) and control compound at a concentration that inhibits completely (100% inhibition). The normalized TR-FRET results are plotted against compound concentration, and the data are fit to a 4-parameter Hill equation to determine the IC50 values.

Chain of KRAS WT (P01116-2 other isoform, or with tags, fused parts or gaps): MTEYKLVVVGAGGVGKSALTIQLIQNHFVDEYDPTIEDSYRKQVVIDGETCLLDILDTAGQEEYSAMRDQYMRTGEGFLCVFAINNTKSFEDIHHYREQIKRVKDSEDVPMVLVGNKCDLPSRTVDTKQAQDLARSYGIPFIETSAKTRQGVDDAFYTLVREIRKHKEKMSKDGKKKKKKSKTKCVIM
Chain of KRAS G12D (P01116-2 other isoform, or with tags, fused parts or gaps G12D): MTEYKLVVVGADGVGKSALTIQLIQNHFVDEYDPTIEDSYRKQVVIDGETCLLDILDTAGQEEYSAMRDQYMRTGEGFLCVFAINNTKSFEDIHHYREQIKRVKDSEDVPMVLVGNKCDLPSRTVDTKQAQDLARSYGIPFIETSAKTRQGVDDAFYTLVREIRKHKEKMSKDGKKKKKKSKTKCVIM

On to `C[C@@H]1Oc2nc(-c3cc(N)c(F)c(F)c3C(F)(F)F)c(F)c3nc(OC[C@@]45CCCN4C[C@H](F)C5)nc(c23)N2C[C@H]3CC[C@H](N3)[C@@H]12` [Compound 15, 2,3-difluoro-5-((5S,5aS,6S,9R)-1-fluoro-12-(((2R,7aS)-2-fluorotetrahydro-1H-pyrrolizin-7a(5H)-yl)methoxy)-5-methyl-5a,6,7,8,9,10-hexahydro-5H-4-oxa-3,10a,11,13,14-pentaaza-6,9-methanonaphtho[1,8-ab]heptalen-2-yl)-4-(trifluoromethyl)aniline], for which the IC50 is 0.07 nM at KRAS G12D and 0.448 nM at KRAS WT.

Consider `Cc1cc(-c2nc3c4c(nc(OC[C@@]56CCCN5C[C@H](F)C6)nc4c2F)N2C[C@H]4CC[C@H](N4)[C@H]2[C@H](C)O3)c(F)c(N)c1F` [Compound 18, 2,6-difluoro-3-((5S,5aS,6S,9R)-1-fluoro-12-(((2R,7aS)-2-fluorotetrahydro-1H-pyrrolizin-7a(5H)-yl)methoxy)-5-methyl-5a,6,7,8,9,10-hexahydro-5H-4-oxa-3,10a,11,13,14-pentaaza-6,9-methanonaphtho[1,8-ab]heptalen-2-yl)-5-methylaniline], for which the half-maximal inhibitory concentration (IC50) stood at 175 nM at KRAS G12D and 7850 nM at KRAS WT.

As for `Cc1c(F)c(N)cc(-c2nc3c4c(nc(OC[C@]56CCN5CC(F)(F)C6)nc4c2F)N2C[C@H]4CC[C@H](N4)[C@H]2[C@H](C)O3)c1C(F)(F)F` [Compound 24, 5-((5S,5aS,6S,9R)-12-(((R)-3,3-difluoro-1-azabicyclo[3.2.0]heptan-5-yl)methoxy)-1-fluoro-5-methyl-5a,6,7,8,9,10-hexahydro-5H-4-oxa-3,10a,11,13,14-pentaaza-6,9-methanonaphtho[1,8-ab]heptalen-2-yl)-2-fluoro-3-methyl-4-(trifuoromethyl)aniline], the IC50 at KRAS G12D worked out at 0.29 nM; at KRAS WT, 3.28 nM.

Take `C[C@@H]1Oc2nc(-c3cc(O)cc4ccccc34)c(F)c3nc(OC[C@]45CCN4CC(F)(F)C5)nc(c23)N2C[C@H]3CC[C@H](N3)[C@@H]12` [Compound 25, 4-((5S,5aS,6S,9R)-12-(((R)-3,3-difluoro-1-azabicyclo[3.2.0]heptan-5-yl)methoxy)-1-fluoro-5-methyl-5a,6,7,8,9,10-hexahydro-5H-4-oxa-3,10a,11,13,14-pentaaza-6,9-methanonaphtho[1,8-ab]heptalen-2-yl)naphthalen-2-ol]: the IC50 is 2.04 nM on KRAS G12D and 126 nM at KRAS WT.

With `Cc1c(F)c(N)cc(-c2nc3c4c(nc(OC[C@@H]5C[C@@H](F)CN5C)nc4c2F)N2C[C@H]4CC[C@H](N4)[C@H]2[C@H](C)O3)c1C(F)(F)F` [Compound 26, 2-Fluoro-5-((5S,5aS,6S,9R)-1-fluoro-12-(((2S,4R)-4-fluoro-1-methylpyrrolidin-2-yl)methoxy)-5-methyl-5a,6,7,8,9,10-hexahydro-5H-4-oxa-3,10a,11,13,14-pentaaza-6,9-methanonaphtho[1,8-ab]heptalen-2-yl)-3-methyl-4-(trifluoromethyl)aniline], the values for the IC50 at KRAS G12D and on KRAS WT were 0.26 nM and 6.01 nM, respectively.

Turning to `C[C@@H]1Oc2nc(-c3cccc4cccc(Cl)c34)c(F)c3nc(OC[C@@]45CCCN4CC4(CC4(F)F)C5)nc(c23)N2C[C@H]3CC[C@H](N3)[C@@H]12` (stereo partly drawn) [Compound 27, (5S,5aS,6S,9R)-2-(8-chloronaphthalen-1-yl)-12-(((7a′S)-2,2-difluorodihydro-1′H,3′H-spiro[cyclopropane-1,2′-pyrrolizin]-7a′(5′H)-yl)methoxy)-1-fluoro-5-methyl-5a,6,7,8,9,10-hexahydro-5H-4-oxa-3,10a,11,13,14-pentaaza-6,9-methanonaphtho[1,8-ab]heptalene], the IC50 on KRAS G12D is 0.72 nM; at KRAS WT, 65.2 nM.

Take `Cc1c(F)c(N)cc(-c2nc3c4c(nc(OCC56CCN5C[C@H](F)C6)nc4c2F)N2C[C@H]4CC[C@H](N4)[C@H]2[C@H](C)O3)c1C(F)(F)F` (stereo partly drawn) [Compound 29, 2-fluoro-5-((5S,5aS,6S,9R)-1-fluoro-12-(((3R)-3-fluoro-1-azabicyclo[3.2.0]heptan-5-yl)methoxy)-5-methyl-5a,6,7,8,9,10-hexahydro-5H-4-oxa-3,10a,11,13,14-pentaaza-6,9-methanonaphtho[1,8-ab]heptalen-2-yl)-3-methyl-4-(trifluoromethyl)aniline]: the IC50 amounted to 0.086 nM on KRAS G12D and 2.93 nM at KRAS WT.

With `C[C@@H]1Oc2nc(-c3cncc4ccccc34)c(F)c3nc(OC[C@@]45CCCN4CC4(CC4(F)F)C5)nc(c23)N2C[C@H]3CC[C@H](N3)[C@@H]12` (stereo partly drawn) [Compound 30, (5S,5aS,6S,9R)-12-(((7a′S)-2,2-difluorodihydro-1′H,3′H-spiro[cyclopropane-1,2′-pyrrolizin]-7a′(5′H)-yl)methoxy)-1-fluoro-2-(isoquinolin-4-yl)-5-methyl-5a,6,7,8,9,10-hexahydro-5H-4-oxa-3,10a,11,13,14-pentaaza-6,9-methanonaphtho[1,8-ab]heptalene], the half-maximal inhibitory concentration (IC50) at KRAS G12D stood at 19.4 nM; at KRAS WT, 598 nM.

Consider `Cc1c(F)c(N)cc(-c2nc3c4c(nc(OC[C@@]56CCCN5C[C@H](OCc5ccc(-c7ccccc7C#N)cc5)C6)nc4c2F)N2C[C@H]4CC[C@H](N4)[C@H]2[C@H](C)O3)c1C(F)(F)F` [Compound 32, 4′-((((2R,7aS)-7a-((((5S,5aS,6S,9R)-2-(5-amino-4-fluoro-3-methyl-2-(trifluoromethyl)phenyl)-1-fluoro-5-methyl-5a,6,7,8,9,10-hexahydro-5H-4-oxa-3,10a,11,13,14-pentaaza-6,9-methanonaphtho[1,8-ab]heptalen-12-yl)oxy)methyl)hexahydro-1H-pyrrolizin-2-yl)oxy)methyl)-[1,1′-biphenyl]-2-carbonitrile], for which the IC50 at KRAS G12D worked out at 0.2 nM; at KRAS WT it was 0.579 nM.

As for `C[C@@H]1Oc2nc(-c3c(C(F)(F)F)ccc(N)c3F)c(F)c3nc(OC[C@@]45CCCN4C[C@H](F)C5)nc(c23)N2C[C@H]3CC[C@H](N3)[C@@H]12` [Compound 35, 2-fluoro-3-((5S,5aS,6S,9R)-1-fluoro-12-(((2R,7aS)-2-fluorotetrahydro-1H-pyrrolizin-7a(5H)-yl)methoxy)-5-methyl-5a,6,7,8,9,10-hexahydro-5H-4-oxa-3,10a,11,13,14-pentaaza-6,9-methanonaphtho[1,8-ab]heptalen-2-yl)-4-(trifluoromethyl)aniline], the 50% inhibitory concentration (IC50) at KRAS G12D was determined as 0.57 nM; on KRAS WT, 15.8 nM.

Turning to `Cc1cc(N)c(F)c(-c2nc3c4c(nc(OC[C@@]56CCCN5C[C@H](F)C6)nc4c2F)N2C[C@H]4CC[C@H](N4)[C@H]2CO3)c1C(F)(F)F` [Compound 36, 2-fluoro-3-((5aS,6S,9R)-1-fluoro-12-(((2R,7aS)-2-fluorotetrahydro-1H-pyrrolizin-7a(5H)-yl)methoxy)-5a,6,7,8,9,10-hexahydro-5H-4-oxa-3,10a,11,13,14-pentaaza-6,9-methanonaphtho[1,8-ab]heptalen-2-yl)-5-methyl-4-(trifluoromethyl)aniline], the IC50 on KRAS G12D was determined as 0.98 nM; on KRAS WT, 46.5 nM.

In the case of `C[C@@H]1Oc2nc(-c3cncc4cccc(Cl)c34)c(F)c3nc(OC[C@@]45CCCN4C[C@H](F)C5)nc(c23)N2C[C@H]3CC[C@H](N3)[C@@H]12` [Compound 38, (5S,5aS,6S,9R)-2-(5-Chloroisoquinolin-4-yl)-1-fluoro-12-(((2R,7aS)-2-fluorotetrahydro-1H-pyrrolizin-7a(5H)-yl)methoxy)-5-methyl-5a,6,7,8,9,10-hexahydro-5H-4-oxa-3,10a,11,13,14-pentaaza-6,9-methanonaphtho[1,8-ab]heptalene], the IC50 at KRAS G12D was found to be 13.9 nM; on KRAS WT it was 697 nM.
